Data published in patent US11045435B2, “Methods for treating ocular diseases” (NATUREWISE BIOTECH & MEDICALS CORPORATION, priority 2016, dated 2021).

What was measured:
[1] = tested on: GFAP mRNA; assay: Gene expression of GFAP in retina, quantitative real-time PCR, streptozotocin-induced diabetic retinopathy; type: in vivo, Sprague-Dawley female rats
Method: After a 16-hour fasting, Sprague-Dawley female rats weighing 200-220 g received a single 60 mg/kg intraperitoneal injection of Streptozotocin (STZ; Sigma-Aldrich, St. Louis, Md.) in 10 mM sodium citrate buffer (pH 4.5; Sigma-Aldrich, St. Louis, Md.). Control rats were fasted and received the buffer solution alone. Rats with blood glucose levels higher than 375 mg/dL 7 days after receiving STZ were considered to be diabetic. Diabetic rats were treated with 1% COMPOUND I, 0.5% COMPOUND I or vehicle eye drops 3 time a day for 6 weeks.
After rat were sacrificed as described previously, the eyes were enucleated and bisected, and the retinas were peeled from the eyecups and immediately homogenized in RNA isolation agent (RNeasy®Plus Mini Kit, Qiagen, Valencia, Calif.). The first-strand cDNA was prepared from the mRNA by using the commercial kit in accordance with the manufacturer's protocol (High-capacity reverse transcription kits, AB life technologies, Austin, Tex.). Real-time PCR was performed in 96-well plates using standard protocols with a fluorescent detection dye (SYBRR Green PCR Master Mix, AB life technologies, Austin, Tex.) in a real-time detection system (iCycler. Bio-Rad). All PCR reactions were a final volume of 20 μl comprised of fluorescent dye/PCR mix, final concentration 0.2 μM forward and reverse primers, and 1 ng of cDNA. The PCR cycle parameters were as follows: polymerase activation for 15 minutes at 90° C., 40 cycles of 95° C. for 15 seconds, 60° C. for 30 seconds and 72° C. for 1 minute. The quantity of mRNA was calculated by normalizing the CT of the β-actin housekeeping gene in the same sample, according to the following formula: The average β-actin CT (each multiplex PCR was performed in triplicate) was subtracted from the average target gene CT; the results represented the ΔCT. This ΔCT is specific and can be compared with the ΔCT of a calibration sample. The subtraction of control ΔCT from the ΔCT of the target gene is referred ΔΔCT. The relative quantification of expression of a target gene (in comparison with control) was determined by using 2^−ΔΔCT.

[2] = tested on: Rabbit with Experimental Ocular Hypertension; assay: Ocular blood flow (colored microspheres) in rabbit with experimental ocular hypertension; type: in vivo, New Zealand white rabbits; details: 1% topical, 50 μl
Method: Rabbits were anesthetized with 35 mg/kg ketamine and 5 mg/kg Balanzine (10% xylazine) by intramuscular injection. Half of the initial dose was given every one hour thereafter. The left ventricle was cannulated through the right carotid artery for injection of colored microspheres and the femoral artery was cannulated for collection of blood samples. The left eye was treated with one drop of proparacaine hydrochloride ophthalmic solution (Bausch & Lomb, Inc., Tampa, Fla., USA). The needle was inserted directly into the anterior chamber of the left eye, which was connected to the 40 mmHg saline manometer. The ocular hypertensive model reduced the ocular blood flow to approximately one third of the normal valued. […] The ocular blood flow was measured by colored microspheres at 0, 30, 60 and 120 minutes after treatment with COMPOUND I or vehicle. […] The blood sample was collected in a heparinized tube and the volume was recorded. […]
The details of sample processing and microspheres counting were provided by E-Z Trac (Los Angeles, Calif., USA). […] The number of microspheres was counted by the hemocytometer under the microscope. […] The protocol thereafter was the same as that used to process the blood samples, and the microspheres were counted.
The blood flow of each tissue at a certain time point was calculated according to the following formula: Qm=(Cm×Qt)/Cr. […]

[3] = tested on: ARPE-19 cells; assay: NaIO3-induced injury in ARPE-19 cells (MTT); type: cell-based, human; details: 10 μg/ml; 72 h
Method: MTT assay was used to measure the viability of ARPE-19 cells and HUVECs. 2×10^5 ARPE-19 cells or 5×10^4 HUVECs were seeded in 96-well plates ([…]) and allowed to grow overnight. Negative control was prepared by adding 100 μl medium without cells. The cells were then treated with fresh medium with COMPOUND I (0.03, 0.1, 0.3, 1, 3 and 10 μg/ml) and/or oxidants (NaIO3, H2O2, t-BHP and NaN3) for 12, 24, or 72 hours (200 μl/well). The vehicle control group was treated with vehicle. 20 μl MTT (5 mg/ml) was added to wells, and incubated for another 4 h. After incubation, the medium was discarded and 100 μl DMSO was added to solubilize formazan produced from MTT by the viable cells. Absorbance was measured at 570 nm using a microplate reader (Bio-Rad Laboratories, Inc., CA). Cells viability was calculated according to the following formula: Viability of cells (%)=(absorbance in tested sample−absorbance in negative control)/(absorbance in vehicle control−absorbance in negative control)×100%.

Compound: COc1ccc(COc2c(/C=C/C(=O)NO)ccc(OC)c2CC=C(C)C)cc1 [COMPOUND I]
- GFAP gene expression vs diabetic control group, in words ([1]; 0.5% and 1%): significantly down-regulated
- mRNA expression of GFAP, DR animals as 100% ([1]; 0.5% eye drops tid 6 weeks): 60%
- mRNA expression of GFAP, DR animals as 100% ([1]; 1% eye drops tid 6 weeks): 51%
- blood flow in ciliary body and choroid ([2]; 30 minutes and 60 minutes after instillation): markedly increased
- blood flow in all tissues (iris, ciliary body, retina, choroid) ([2]; 120 minutes after instillation): significantly increased
- effect on viability in NaIO3-induced injury [3]: significantly enhanced the viability
